Data set [1] concerns Caenorhabditis elegans (C. elegans, N2 strain).
The nature of data set [2]: In vitro assays confirming flagged compound (no details given). The text has this: 5.Implementation and Reproducibility
5.1 Real-World Deployment in Chemical Safety Assessment
HazChemNet has been integrated into a cloud-based decision support system for chemical safety evaluation, enabling real-time toxicity prediction for industrial and regulatory use. Key applications include:
Industrial Chemical Screening:
A pharmaceutical company utilized HazChemNet to prioritize 1,200 candidate compounds for drug development. The model identified 18% as high-risk (toxic), reducing experimental testing costs by 35%.
Environmental Regulation Compliance:
A regulatory agency deployed the model to screen 5,000 industrial chemicals under the EU REACH framework.
HazChemNet achieved 89% concordance with expert evaluations, accelerating risk assessment workflows.
5.2 Case Study: Identification of Emerging Contaminants
We applied HazChemNet to predict the toxicity of per- and polyfluoroalkyl substances (PFAS), a class of persistent environmental pollutants. The model identified 22 out of 30 PFAS compounds as hazardous, including:
PFOS (Perfluorooctanesulfonic acid): Predicted probability = 0.93 (high risk).
GenX (Hexafluoropropylene oxide dimer acid): Predicted probability = 0.87 (moderate risk).
Validation: Experimental LC50 data from zebrafish assays confirmed the predictions with a Spearman correlation of ρ […]
5.3 Integration with Laboratory Information Systems […]

Read-outs that look alike come from different tables or passages of the source.

In the case of `O=C(O)CC(O)(CC(=O)O)C(=O)O` [Citric Acid], the mortality result in data set [1] (in vivo) is recorded as “no significant mortality”.

Regarding Gibberellin, the mortality result in data set [1] (in vivo) is “no significant mortality”.

`O=C1C=CC(=O)C(Cl)=C1` [CID_123456]: in data set [2], the “confirmation of hazard flag by in vitro assays” value is “confirmed by in vitro assays”.

`OCC(O)CO` [Glycerol]: the mortality result in data set [1] (in vivo) is “no significant mortality”.

Regarding Ethyl Alcohol, the LD50 in data set [1] (in vivo) is 46.4 to 100 mg/mL.

In data set [1] (L4-stage worms, 24 h at 20 °C, K-M buffer, Probit analysis), `CC(=O)[O-].CC(=O)[O-].[Pb+2]` [Lead Acetate] gave an LD50 of 0.464 to 1 mg/mL.

The values above are taken from paper PMC12524297 (International Journal of Molecular Sciences, 2025).
